# Source: patent US20240245639A1, “Dermal Application of Retinoic Acid Receptor Agonists for Amelioration of Hypertrophic Scar” (Northwestern University, priority 2023, published 2024)
# Experiments:
# [1] = system: cellular retinoic acid binding protein (CRABP); details: cited from earlier work
# [2] = system: primary human foreskin fibroblasts; assay: Antagonism of fibroblast activation in presence or absence of TGF-β1 (qRT-PCR, Western blot, immunofluorescence); format: cell-based; details: 1,000 nM Ch55, presence and absence of TGF-β1, 48 hours
# Experimental: RAR Agonist all-Trans Retinoic Acid Antagonizes Myofibroblast Activation We then wished to see whether another RAR agonist could antagonize myofibroblast activation.
# (§1) Cells cultured on glass coverslips were fixed in 4% paraformaldehyde for 30 minutes at room temperature. Cells were blocked in 10% normal goat serum and incubated overnight at 4° C. in solutions of the following primary antibodies: Rabbit monoclonal α-human α-SMA (1:500 dilution, catalog #192455, Cell Signaling Technology, Danvers M A) or mouse α-human COL1A1 (1:1000 dilution, catalog #M-38c, DSHB, Iowa City, IA). The following day, cells were incubated in 1:200 diluted solutions of goat-α-rabbit IgG or donkey-α-mouse IgG Alexafluor 488-conjugated secondary antibodies (A11034 or A21202, Invitrogen) containing Alexafluor 568-conjugated phalloidin (A12380, Invitrogen) for 2 hours in the dark at room temperature, before a 20 minute counterstain in 500 ng/mL DAPI. Coverslips were mounted onto slides in the dark using Fluoro Gel with DABCO (Electron Microscopy Sciences, Hatfield, PA) and imaged on an EVOS-FL imaging system (ThermoFisher).
# Harvested scar tissues were incubated in 0.5M ammonium thiocyanate for 20 minutes, followed by mechanical separation of dermis and epidermis using a dissecting microscope. Isolated dermal tissues were minced with a razor blade, submerged in RIPA buffer, and homogenized in the presence of 2 mm zirconia beads using a MagNA Lyser (Roche, Basel, Switzerland). Alternatively, cell culture samples were detached from the culture surface by trypsinization, collected by centrifugation, and lysed in RIPA buffer. Protein concentrations of cell culture and tissue samples were determined using a DC protein assay (BioRad). Five micrograms of total protein were loaded onto polyacrylamide gels and subjected to SDS-PAGE before transfer to nitrocellulose membranes, blocking with 5% dry milk in TBS-T, and probing with target-specific primary antibodies overnight. Species-specific secondary antibody solutions were added to membranes, and chemiluminescent signal was developed with Amersham ECL Western blotting detection reagent using X-ray film.
# Primary antibodies used were rabbit anti-α-SMA (1:1000, 19245S, Cell Signaling Technology), rabbit anti-collagen I (1:1000, ab34710, Abcam), mouse anti-collagen I (1:1000, C2456, Sigma-Aldrich), and mouse anti-GAPDH (1:5000, MA5-15738, Invitrogen). Secondary antibodies utilized were HRP goat anti-rabbit IgG(H+L) and horse anti-mouse IgG(H+L) (Vector Laboratories, Newark, CA), both used at 1:5000.
# [3] = system: primary human foreskin fibroblasts; details: second donor, 1,000 nM, 24 hours
# Experimental: (§2) Cell culture Primary human neonatal foreskin fibroblasts were obtained from the Skin Biology and Diseases Resource-based Center at Northwestern University. Primary rabbit dermal fibroblasts were isolated from female New Zealand White rabbits via harvesting full-thickness skin biopsies from rabbit ears, digesting overnight in a solution of 5 mg/mL dispase, and subsequently mechanically separating dermis from epidermis. After discarding epidermal tissue, dermal tissue was minced with a razor blade, and fibroblasts were liberated through collagenase-mediated digestion for growth in culture. […] Human fibroblasts and rabbit fibroblasts were cultured on tissue culture plastic (or, for immunofluorescence experiments, on glass coverslips) in DMEM+10% FBS and were serum starved in DMEM+0.1% FBS for 24 hours prior to drug treatments. When indicated, recombinant human TGF-β 1 was included in culture medium at a concentration of 10 ng/mL. Cultures were maintained in a humidified cell culture incubator at 37° C., 5% CO2, and ambient O2. For treatment with drugs and associated vehicle controls, the fraction of DMSO in the media was always maintained at <0.1% (v/v) in order to avoid confounding effects. […]
# [4] = system: primary human foreskin fibroblasts; assay: In vitro single-concentration screen of predicted compounds (brightfield, qRT-PCR); format: cell-based; details: single concentration, 24 hours, vs vehicle
# Experimental: In order to initially test the identified drugs, we applied each drug or DMSO vehicle control at a single concentration to primary human foreskin fibroblasts in vitro for 24 hours, before harvesting and measuring relative expression of selected myofibroblast marker genes by qRT-PCR. […] None of the drugs tested appeared to affect expression of TGFB1 (the gene encoding transforming growth factor-beta 1) at the examined concentrations.
# MATERIALS AND METHODS Materials Emetine dihydrochloride hydrate, homoharringtonine, Ch55 and panobinostat were acquired from Fisher Scientific (Waltham, MA). AZD-7762 was acquired from Selleck Chemicals (Houston, TX). For in vitro work, emetine dihydrochloride hydrate was dissolved in sterile H2O at 50 mM. Homoharringtonine was dissolved in DMSO at 10 mg/mL. Panobinostat was dissolved in DMSO at 425 μM. […] AZD-7762 was dissolved in DMSO at 500 μM. Recombinant human TGF-β1 (Sigma-Aldrich) was dissolved in sterile H2O at 50 µg/mL. All-trans-retinoic acid (Thermo Scientific) was dissolved in DMSO at 10 mM.
# [5] = system: primary rabbit dermal fibroblasts; assay: Ch55 treatment of rabbit dermal fibroblasts (morphology, ACTA2 qRT-PCR); format: cell-based; details: 1,000 nM, 24 hours
# Experimental: as §2
# [6] = system: primary human HTS fibroblasts; assay: Collagen I deposition in hypertrophic scar fibroblasts (Western blot, immunofluorescence); format: cell-based; details: HTS fibroblasts, 1,000 nM Ch55, presence and absence of TGF-β1, 48 hours
# Experimental: Since overproduction of collagen is characteristic of fibroblasts in tissue fibrosis, including hypertrophic scar and keloid, we wished to determine whether Ch55 also affects deposition of collagen I by these fibroblasts.
# as §1, with “Coverslips were mounted onto slides in the dark using Fluoro Gel with DABCO (Electron Microscopy Sciences, Hatfield, PA) and imaged on an EVOS-FL imaging system (ThermoFisher).” left out
# Harvested scar tissues were incubated in 0.5M ammonium thiocyanate for 20 minutes, followed by mechanical separation of dermis and epidermis using a dissecting microscope. […] Protein concentrations of cell culture and tissue samples were determined using a DC protein assay (BioRad). […]
# [7] = molecular target: T1, RAR-β (Homo sapiens, UniProt P10826); details: cited from earlier work
# T1 sequence (P10826 1-455): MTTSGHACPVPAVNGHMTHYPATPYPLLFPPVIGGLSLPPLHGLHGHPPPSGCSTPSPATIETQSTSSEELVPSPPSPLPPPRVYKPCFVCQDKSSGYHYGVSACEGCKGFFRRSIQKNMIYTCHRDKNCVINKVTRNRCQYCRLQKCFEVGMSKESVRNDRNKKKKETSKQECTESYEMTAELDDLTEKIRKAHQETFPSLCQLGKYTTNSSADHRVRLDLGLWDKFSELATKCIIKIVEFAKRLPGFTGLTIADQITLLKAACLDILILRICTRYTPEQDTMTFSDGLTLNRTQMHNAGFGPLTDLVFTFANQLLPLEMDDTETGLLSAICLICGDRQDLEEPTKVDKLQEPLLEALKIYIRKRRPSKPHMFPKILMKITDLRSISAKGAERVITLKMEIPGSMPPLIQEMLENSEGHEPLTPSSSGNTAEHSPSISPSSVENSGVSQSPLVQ
structure (smiles),measurement,setting,value
CC(C)(C)c1cc(C(=O)/C=C/c2ccc(C(=O)O)cc2)cc(C(C)(C)C)c1 [Ch55],affinity for CRABP,[1],low affinity
same,α-SMA protein in filamentous actin stress fibers (immunofluorescence),[2],loss of α-SMA protein from filamentous actin stress fibers
same,effects on morphology and gene expression in fibroblasts of another tissue donor,[3],comparable effects
same,ACTA2 expression (qRT-PCR),[4],clear and consistent downregulation
same,CCN2 expression (qRT-PCR),[4],clear and consistent downregulation
same,MMP1 expression (qRT-PCR),[4],without downregulating
same,SERPINE1 expression (qRT-PCR),[4],clear and consistent downregulation
same,effects on morphology and ACTA2 expression,[5],comparable effects
same,"collagen I deposition (Western blot, immunofluorescence)",[6],dramatic reduction
same,affinity for RAR-β,[7],high affinity
